# Reference: patent publication US11976083B2, “Inhibitors of peptidylarginine deiminases” (Gilead Sciences, Inc., priority 2020, dated 2024)
# Target: T1, human PAD4 (Homo sapiens, UniProt Q9UM07)
# T1 construct: human PAD4 (NM_012387), A2-P663, was PCR amplified; His-SUMO (N, cleaved yes); made in house; host or cells: E. coli BL21(DE3)
# Test: In vitro PAD4 BAEE biochemical assay
# Conditions: BAEE substrate 3 mM, 5 nM PAD4, 2 mM calcium chloride; geometric mean of multiple experiments
# Summary of the method: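 Assay was run at 25 °C using 3 mM BAEE and 5 nM human PAD4 after a 30 min compound preincubation; ammonia produced over 2 h was quantified by OPA-derived fluorescence. Full inhibition was defined by 50 µM BB-Cl-Amidine, and IC50 came from variable-slope nonlinear regression.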
# T1 sequence (Q9UM07 2-663): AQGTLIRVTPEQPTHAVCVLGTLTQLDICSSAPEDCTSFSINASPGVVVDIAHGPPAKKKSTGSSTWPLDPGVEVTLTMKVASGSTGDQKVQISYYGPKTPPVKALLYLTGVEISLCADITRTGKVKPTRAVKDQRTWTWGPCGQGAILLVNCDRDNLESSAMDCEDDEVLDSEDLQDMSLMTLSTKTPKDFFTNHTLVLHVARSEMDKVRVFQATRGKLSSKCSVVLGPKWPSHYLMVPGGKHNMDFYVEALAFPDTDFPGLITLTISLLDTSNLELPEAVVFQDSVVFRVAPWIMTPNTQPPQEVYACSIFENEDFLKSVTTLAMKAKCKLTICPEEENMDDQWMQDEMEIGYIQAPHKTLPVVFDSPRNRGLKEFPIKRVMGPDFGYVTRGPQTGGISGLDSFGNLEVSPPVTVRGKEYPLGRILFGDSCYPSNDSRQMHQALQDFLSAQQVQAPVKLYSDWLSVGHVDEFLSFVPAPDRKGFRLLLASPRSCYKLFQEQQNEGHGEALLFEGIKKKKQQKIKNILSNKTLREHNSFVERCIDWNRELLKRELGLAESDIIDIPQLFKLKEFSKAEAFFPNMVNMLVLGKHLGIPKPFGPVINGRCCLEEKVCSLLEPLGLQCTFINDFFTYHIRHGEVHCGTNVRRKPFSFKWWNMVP
row,SMILES,IC50
1,"COc1cc(C(=O)N[C@H]2CNCC[C@@H]2F)cc2nc(-c3cc4ccc5nc4n3CCCCCc3c(noc3C)C(=O)N[C@@H]5C)n(C)c12 [Example 398, 2-[(2~{R})-2,8-dimethyl-4-oxo-7-oxa-3,6,15,21-tetrazatetracyclo[13.5.2.0^{5,9}.0^{18,22}]docosa-1(21),5,8,16,18(22),19-hexaen-16-yl]-~{N}-[(3~{S},4~{S})-4-fluoro-3-piperidyl]-7-methoxy-1-methyl-benzimidazole-5-carboxamide]",74 nM
2,"COc1cc(C(=O)N[C@H]2CNCC[C@@H]2F)cc2nc(-c3cc4ccc5nc4n3CCC/C=C/c3c(noc3C)C(=O)N[C@@H]5C)n(C)c12 [Example 399, 2-[(2~{R},10~{E})-2,8-dimethyl-4-oxo-7-oxa-3,6,15,21-tetrazatetracyclo[13.5.2.0^{5,9}.0^{18,22}]docosa-1(21),5,8,10,16,18(22),19-heptaen-16-yl]-~{N}-[(3~{S},4~{S})-4-fluoro-3-piperidyl]-7-methoxy-1-methyl-benzimidazole-5-carboxamide]",86 nM
3,"COc1cc(C(=O)N[C@H]2CNCC[C@@H]2F)cc2nc(-c3cc4ccc5nc4n3CCCCCCC3(CC(F)(F)C3)C(=O)N[C@@H]5C)n(C)c12 [Example 400, 2-[(11~{R})-1′,1′-difluoro-11-methyl-9-oxo-spiro[1,10,19-triazatricyclo[10.5.2.0^{15,18}]nonadeca-12(19),13,15(18),16-tetraene-8,3′-cyclobutane]-17-yl]-~{N}-[(3~{S},4~{S})-4-fluoro-3-piperidyl]-7-methoxy-1-methyl-benzimidazole-5-carboxamide]",150 nM
4,"C[C@H]1NC(=O)c2cccnc2CCCCCn2c(-c3nc4cc(C(=O)N[C@H]5CNCC[C@@H]5F)c(F)cc4n3C)cc3ccc1nc32 [Example 401, 6-fluoro-~{N}-[(3~{S},4~{S})-4-fluoro-3-piperidyl]-1-methyl-2-[(2~{R})-2-methyl-4-oxo-3,9,16,22-tetrazatetracyclo[14.5.2.0^{5,10).0^{19,23}]tricosa-1(22),5(10),6,8,17,19(23),20-heptaen-17-yl]benzimidazole-5-carboxamide]",90 nM
5,"C[C@H]1NC(=O)C2(CCCCCCn3c(-c4nc5cc(C(=O)N[C@H]6CNCC[C@@H]6F)c(F)cc5n4C)cc4ccc1nc43)CC(F)(F)C2 [Example 402, 2-[(11~{R})-1′,1′-difluoro-11-methyl-9-oxo-spiro[1,10,19-triazatricyclo[10.5.2.0^{15,18}]nonadeca-12(19),13,15(18),16-tetraene-8,3′-cyclobutane]-17-yl]-6-fluoro-~{N}-[(3~{S},4~{S})-4-fluoro-3-piperidyl]-1-methyl-benzimidazole-5-carboxamide]",91 nM
6,"COC1(Cn2c(-c3cc4ccc5nc4n3CCCCC[C@@H]3C[C@H]3C(=O)N[C@@H]5C)nc3cc(C(=O)N[C@H]4CNCC[C@@H]4F)c(F)cc32)CC1 [Example 404, 6-fluoro-~{N}-[(3~{S},4~{S})-4-fluoro-3-piperidyl]-1-[(1-methoxycyclopropyl)methyl]-2-[(2~{R},5~{R},7~{R})-2-methyl-4-oxo-3,13,19-triazatetracyclo[11.5.2.0^{5,7}.0^{16,20}]icosa-1(19),14,16(20),17-tetraen-14-yl]benzimidazole-5-carboxamide]",83 nM
7,"C[C@H]1NC(=O)[C@@H]2C[C@H]2CCCCCn2c(-c3nc4cc(C(=O)N[C@H]5CNCC[C@@H]5F)c(F)cc4n3CC3(F)CC3)cc3ccc1nc32 [Example 405, 6-fluoro-1-[(1-fluorocyclopropyl)methyl]-~{N}-[(3~{S},4~{S})-4-fluoro-3-piperidyl]-2-[(2~{R},5~{R},7~{R})-2-methyl-4-oxo-3,13,19-triazatetracyclo[11.5.2.0^{5,7}.0^{16,20}]icosa-1(19),14,16(20),17-tetraen-14-yl]benzimidazole-5-carboxamide]",27 nM
8,"C[C@H]1NC(=O)[C@@H]2C[C@H]2CCCCCn2c(-c3nc4cc(C(=O)N[C@H]5CNCC[C@@H]5F)c(F)cc4n3CC3(C#N)CC3)cc3ccc1nc32 [Example 406, 1-[(1-cyanocyclopropyl)methyl]-6-fluoro-~{N}-[(3~{S},4~{S})-4-fluoro-3-piperidyl]-2-[(2~{R},5~{R},7~{R})-2-methyl-4-oxo-3,13,19-triazatetracyclo[11.5.2.0^{5,7}.0^{16,20}]icosa-1(19),14,16(20),17-tetraen-14-yl]benzimidazole-5-carboxamide]",22 nM
9,"COc1cc(C(=O)N2CC[C@@H](OC)[C@@H](N)C2)cc2nc(-c3cc4ccc5nc4n3CCCCCc3nc(Cl)ccc3C(=O)N[C@@H]5C)n(C)c12 [Example 407, (2~{R})-17-[5-[(3~{S},4~{R})-3-amino-4-methoxy-piperidine-1-carbonyl]-7-methoxy-1-methyl-benzimidazol-2-yl]-8-chloro-2-methyl-3,9,16,22-tetrazatetracyclo[14.5.2.0^{5,10).0^{19,23}] tricosa-1(22),5(10),6,8,17,19(23),20-heptaen-4-one]",70 nM
10,"COc1cc(C(=O)N2CCC[C@@H](N)[C@H]2CO)cc2nc(-c3cc4ccc5nc4n3CCCCC[C@@H]3C[C@H]3C(=O)N[C@@H]5C)n(C)c12 [Example 408, (2~{R},5~{R},7~{R})-14-[5-[(2~{S},3~{R})-3-amino-2-(hydroxymethyl)piperidine-1-carbonyl]-7-methoxy-1-methyl-benzimidazol-2-yl]-2-methyl-3,13,19-triazatetracyclo[11.5.2.0^{5,7}.0^{16,20}] icosa-1(19),14,16(20),17-tetraen-4-one]",255 nM
11,"COc1cc(C(=O)N2CC[C@@H](OC)[C@@H](N)C2)cc2nc(-c3cc4ccc5nc4n3CCCCCc3ncccc3C(=O)N[C@@H]5C)n(C)c12 [Example 409, (2~{R})-17-[5-[(3~{S},4~{R})-3-amino-4-methoxy-piperidine-1-carbonyl]-7-methoxy-1-methyl-benzimidazol-2-yl]-2-methyl-3,9,16,22-tetrazatetracyclo[14.5.2.0^{5,10}.0^{19,23}] tricosa-1(22),5(10),6,8,17,19(23),20-heptaen-4-one]",83 nM
12,"COC[C@@H]1[C@H](N)CCCN1C(=O)c1cc(OC)c2c(c1)nc(-c1cc3ccc4nc3n1CCCCC[C@@H]1C[C@H]1C(=O)N[C@@H]4C)n2C [Example 411, (2~{R},5~{R},7~{R})-14-[5-[(2~{S},3~{R})-3-amino-2-(methoxymethyl)piperidine-1-carbonyl]-7-methoxy-1-methyl-benzimidazol-2-yl]-2-methyl-3,13,19-triazatetracyclo[11.5.2.0^{5,7}.0^{16,20}] icosa-1(19),14,16(20),17-tetraen-4-one]",398 nM
13,"C[C@H]1NC(=O)[C@@H]2C[C@H]2CCCCCn2c(-c3nc4cc(C(=O)N[C@H]5CNCC[C@@H]5F)c(F)cc4n3[C@H]3C[C@@H]3C)cc3ccc1nc32 [Example 413, 6-fluoro-˜{N}-[(3˜{S},4˜{S})-4-fluoro-3-piperidyl]-1-[(1˜{S},2˜{S})-2-methylcyclopropyl]-2-[(2˜{R},5˜{R},7˜{R})-2-methyl-4-oxo-3,13,19-triazatetracyclo[11.5.2.0^{5,7}.0^{16,20}]icosa-1(19),14,16(20),17-tetraen-14-yl]benzimidazole-5-carboxamide]",37 nM
